How the values were obtained:
[1] = system: Influenza strain A549 A/WSN/33 (H1N1); test: microbe, parasite or virus in culture; format: cell-based; details: Influenza A virus, A549, 20 h, A549 cells, influenza A/WSN/33 (H1N1), 20 hours incubation; read-out: A549_A(H1N1) EC50
[2] = in vitro; details: human, CC50, uninfected A549 cells, CellTiter-Glo

| Structure (SMILES) | EC50 [1] | CC50 [2] |
| --- | --- | --- |
| O=C1c2c(O)c(=O)ccn2N2CN1CC/C=C\COc1ccc(F)c3c1[C@H]2c1ccccc1SC3 (single isomer, unassigned) [Compound 93B, (1*SR,13Z)-20-fluoro-7-hydroxy-16-oxa-23-thia-2,3,10-triazahexacyclo[15.12.1.12,10.03,8.021,30.024,29]hentriaconta-4,7,13,17,19,21(30),24(29),25,27-nonaene-6] | 2.2 nM | > 200 nM |
| O=C1c2c(O)c(=O)ccn2N2CN1CC/C=C/COc1ccccc1[C@H]2c1ccccc1 [Compound 10B, (2R,E)-15-hydroxy-2-phenyl-12,13,14,16-tetrahydro-11H-4-oxa-1(1,3)-pyrido[2,1-f][1,2,4]triazina-3(1,2)-benzenacyclononaphan-6-ene-14,16-dione] | 13 nM | > 2000 nM |
| C[C@H]1/C=C\COc2cccc3c2[C@@H](c2ccccc2SC3)N2CN1C(=O)c1c(O)c(=O)ccn12 (single isomer, unassigned) [Compound 138AA, (13*S,21a*S,Z)-16-hydroxy-13-methyl-6,10,13,21a-tetrahydro-7,8-(epiprop[1]en[1]yl[3]ylidene)-14,21-methanobenzo[6,7]thiepino[4,5-c]pyrido[1,2-f][1]oxa[5,6,9]triazacyclotridecine-15,17-dione] | 0.8 nM | > 50 nM |
| O=C1c2c(O)c(=O)ccn2N2CN1C/C=C\COc1cccc3c1[C@H]2c1ccccc1SC3 [Compound 46B, (21S,Z)-16-hydroxy-6,10,13,21a-tetrahydro-7,8-(epiprop[1]en[1]yl[3]ylidene)-14,21-methanobenzo[6,7]thiepino[4,5-c]pyrido[1,2-f][1]oxa[5,6,9]triazacyclotridecine-15,17-dione] | 3 nM | > 100 nM |
| O=C1c2c(O)c(=O)ccn2N2CN1C1(/C=C/COc3cc(F)c(F)c4c3[C@H]2c2ccccc2SC4)CC1 (single isomer, unassigned) [Compound 108B, (17a′*S,*E)-24′,25′-difluoro-12′-hydroxy-2′,17a′-dihydro-6′H-spiro[cyclopropane-1,9′-[3,4](epiprop[1]en[1]yl[3]ylidene)[10,17]methanobenzo[6,7]thiepino[4,5-c]pyrido[1,2-f][1]oxa[5,6,9]triazacyclotridecine]-11′,13′-dione] | 0.2 nM | > 50 nM |
| O=C1c2c(O)c(=O)ccn2N2CN1C[C@@H]1C[C@H]1COc1ccccc1[C@@H]2c1ccccc1 (single isomer, unassigned) [Compound 80AB, (1a*R,8*S,17a*R)-14-hydroxy-8-phenyl-1a,2,17,17a-tetrahydro-1H,8H-9,16-methanobenzo[b]cyclopropa[k]pyrido[1,2-f][1]oxa[5,6,9]triazacyclotridecine-13,15-dione] | 66 nM | > 10000 nM |
| C[C@@H]1/C=C\COc2cccc3c2[C@H](c2ccccc2SC3)N2CN1C(=O)c1c(O)c(=O)ccn12 (single isomer, unassigned) [Compound 138BB, (13*R,21a*R,Z)-16-hydroxy-13-methyl-6,10,13,21a-tetrahydro-7,8-(epiprop[1]en[1]yl[3]ylidene)-14,21-methanobenzo[6,7]thiepino[4,5-c]pyrido[1,2-f][1]oxa[5,6,9]triazacyclotridecine-15,17-dione] | > 100 nM | > 200 nM |
| O=C1c2c(O)c(=O)ccn2N2CN1C/C=C\COc1cccnc1[C@@H]2c1ccccc1 (single isomer, unassigned) [Compound 27B, (18*S,*Z)-12-hydroxy-18-phenyl-6,9-dihydro-18H-10,17-methanodipyrido[3,2-b:1′,2′-f][1]oxa[5,6,9]triazacyclotridecine-11,13-dione] | 45700 nM | > 20000 nM |
| COc1ccccc1[C@@H]1c2cccc(F)c2OC/C=C\CN2CN1n1ccc(=O)c(O)c1C2=O (single isomer, unassigned) [Compound 117A, (18*R,*Z)-4-fluoro-12-hydroxy-18-(2-methoxyphenyl)-6,9-dihydro-18H-10,17-methanobenzo[b]pyrido[1,2-f][1]oxa[5,6,9]triazacyclotridecine-11,13-dione] | 29 nM | > 200 nM |
| CC(C)[C@@H]1/C=C/COc2ccccc2[C@@H](c2ccccc2)N2CN1C(=O)c1c(O)c(=O)ccn12 (single isomer, unassigned) [Compound 132A, (9*R,18*R,*E)-12-hydroxy-9-isopropyl-18-phenyl-9,10-dihydro-6H,18H-10,17-methanobenzo[b]pyrido[1,2-f][1]oxa[5,6]diazacyclotridecine-11,13-dione] | > 100 nM | > 200 nM |
| O=C1c2c(O)c(=O)ccn2N2CN1C/C=C\COc1cccnc1[C@H]2c1ccccc1 (single isomer, unassigned) [Compound 27A, (18*R,*Z)-12-hydroxy-18-phenyl-6,9-dihydro-18H-10,17-methanodipyrido[3,2-b:1′,2′-f][1]oxa[5,6,9]triazacyclotridecine-11,13-dione] | 94 nM | > 2000 nM |
| O=C1c2c(O)c(=O)ccn2N2CN1CC[C@@H]1C[C@H]1COc1cccc3c1[C@@H]2c1ccccc1SC3 (single isomer, unassigned) [Compound 131AA, (1*R,13*S,15*R)-7-hydroxy-17-oxa-24-thia-2,3,10-triazaheptacyclo[16.12.1.12,10.03,8.013,15.022,31.025,30]dotriaconta-4,18,20,22(31),25(30),26,28-heptaene-6,9-dione] | 4.7 nM | > 200 nM |
| CC[C@H]1/C=C/COc2c(ccc(F)c2F)[C@H](c2ccccn2)N2CN1C(=O)c1c(O)c(=O)ccn12 (single isomer, unassigned) [Compound 160BA, (9*S,18*R,*E)-9-ethyl-3,4-difluoro-12-hydroxy-18-(pyridin-2-yl)-6,9-dihydro-18H-10,17-methanobenzo[b]pyrido[1,2-f][1]oxa[5,6,9]triazacyclotridecine-11,13-dione] | > 50 nM | > 100 nM |
| O=C1c2c(O)c(=O)ccn2N2CN1CCC/C=C/COc1ccccc1[C@@H]2c1ccccc1 (single isomer, unassigned) [Compound 67B, (2*S,*Z)-15-hydroxy-2-phenyl-12,13,14,16-tetrahydro-11H-4-oxa-1(1,3)-pyrido[2,1-f][1,2,4]triazina-3(1,2)-benzenacyclodecaphan-6-ene-14,16-dione] | > 1000 nM | > 2000 nM |
| O=C1c2c(O)c(=O)ccn2N2CN1C/C=C/CCOc1cccc(c1)C2c1ccccc1 (stereo not shown) [Compound 6, (*E)-15-hydroxy-2-phenyl-12,13,14,16-tetrahydro-11H-4-oxa-1(1,3)-pyrido[2,1-f][1,2,4]triazina-3(1,3)-benzenacyclononaphan-7-ene-14,16-dione] | 6150 nM | > 20000 nM |
| CC(C)[C@@H]1/C=C/COc2c(ccc(F)c2F)[C@@H](c2ccccc2)N2CN1C(=O)c1c(O)c(=O)ccn12 (single isomer, unassigned) [Compound 128AA, (9*R,18*R,*E)-3,4-difluoro-12-hydroxy-9-isopropyl-18-phenyl-6,9-dihydro-18H-10,17-methanobenzo[b]pyrido[1,2-f][1]oxa[5,6,9]triazacyclotridecine-11,13-dione] | > 100 nM | > 200 nM |
| O=C1c2c(O)c(=O)ccn2N2CN1CC/C=C/COc1cccc3c1[C@@H]2c1ccccc1SC3 (single isomer, unassigned) [Compound 37C] | > 1000 nM | > 2000 nM |
| O=C1c2c(O)c(=O)ccn2N2CN1C/C=C\COc1cc(F)c(F)cc1[C@H]2c1ccccc1 (single isomer, unassigned) [Compound 41A, (18*R,Z)-2,3-difluoro-12-hydroxy-18-phenyl-6,9-dihydro-18H-10,17-methanobenzo[b]pyrido[1,2-f][1]oxa[5,6,9]triazacyclotridecine-11,13-dione] | 294 nM | > 2000 nM |
| O=C1c2c(O)c(=O)ccn2N2CN1C/C=C\CCCOc1ccccc1C2c1ccccc1 (stereo not shown) [Compound 60, (*Z)-15-hydroxy-2-phenyl-12,13,14,16-tetrahydro-11H-4-oxa-1(1,3)-pyrido[2,1-f][1,2,4]triazina-3(1,2)-benzenacyclodecaphan-8-ene-14,16-dione] | > 1000 nM | > 2000 nM |
| O=C1c2c(O)c(=O)ccn2N2CN1CCCC/C=C\c1cccc3c1[C@@H]2c1ccccc1CC3 (single isomer, unassigned) [Compound 86B, (13*Z,23b*R)-6-hydroxy-10,11,12,18,19,23b-hexahydro-9H-1,8-methanobenzo[4,5]cyclohepta[1,2,3-qr]pyrido[1,2-c][2,3,6]benzotriazacyclotetradecine-5,7-dione] | 27 nM | > 2000 nM |
| O=C1c2c(O)c(=O)ccn2N2CN1CCCCCCOc1ccccc1C2c1ccccc1 (stereo not shown) [Compound 55, 15-hydroxy-2-phenyl-12,13,14,16-tetrahydro-11H-4-oxa-1(1,3)-pyrido[2,1-f][1,2,4]triazina-3(1,2)-benzenacyclodecaphane-14,16-dione] | 880 nM | > 2000 nM |
| C[C@@H]1/C=C/COc2ccccc2[C@@H](c2ccccc2)N2CN1C(=O)c1c(O)c(=O)ccn12 (single isomer, unassigned) [Compound 29AA, (9*R, 18*R, E)-12-hydroxy-9-methyl-18-phenyl-6,9-dihydro-18H-10,17-methanobenzo[b]pyrido[1,2-f][1]oxa[5,6,9]triazacyclotridecine-11,13-dione] | > 3000 nM | > 2000 nM |
| O=C1c2c(O)c(=O)ccn2N2CN1C1(/C=C/COc3c(ccc(F)c3F)[C@@H]2c2ccccc2)CCC1 [Compound 146B, (18'S,E)-3′,4′-difluoro-12′-hydroxy-18′-phenyl-6′H,18′H-spiro[cyclobutane-1,9′-[10,17]methanobenzo[b]pyrido[1,2-f][1]oxa[5,6,9]triazacyclotridecine]-11′,13′-dione] | 340 nM | > 10000 nM |
